pEC50: −log10 of the molar value.
Tests used:
HBV [1] = experiment: In vitro anti-HBV activity in HepG2.2.15 cell line (intracellular HBV DNA by qPCR at 1 μM); format: cell-based; settings: Hepatitis B virus, 144 h; HepG2.2.15 cells, 1 μM compound, 6 days, intracellular HBV DNA as percentage compared to vehicle control (0.5% DMSO)
In short: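 HepG2.2.15 cells given compound at 1 μM (0.5% DMSO final) for 3 days, then fresh compound-containing medium for 3 more days. After 6 days intracellular HBV DNA measured by qPCR. Expressed as % of 0.5% DMSO vehicle control and binned into letter ranges.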

HBV [2] = experiment: Effect on intrahepatic HBV DNA levels in HepG2.2.15 cells (EC50); format: cell-based; settings: Hepatitis B virus, 144 h, 6 days, intrahepatic HBV DNA by qPCR, read-out: Anti-HBV DNA (EC50)
In short: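 Over 6 days at 37° C., HepG2.2.15 cells were treated with compound in 10% FCS medium, refreshed with compound after day 3. Intracellular HBV DNA was quantified by qPCR from cell lysates, and EC50 fitted by nonlinear regression relative to no-drug controls.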

[3] = Cytotoxicity (MTT) in HepG2.2.15 cells; format: cell-based; settings: human, 6 days treatment, read-out: HepG2.1.15 cytotoxicity (CC50)
Experimental: HepG2.2.15 cells were seeded onto 96-well culture plate and allowed to adhere for 24 hours. The cells were treated with various concentrations of the compounds for 6 days. After treatment, the culture media were discarded and further incubated with serum-free media containing […] of 3-(4,5-dimethylthiazol-2-yl)-2,5-diphenyl tetrazolium bromide (MTT) for 2 hour. The resulting formazan crystals were completely dissolved in dimethyl sulfoxide (DMSO), and then measured absorbance at 570 nm using microplate reader. The concentrations of compounds producing 50% cell death (CC50) were determined from a fitting of concentration-response curve (% cell viability versus concentration) to a four-parameter equation.

HBV core protein (Cp149) [4] = biological target: T1, HBV core protein (Cp149) (Hepatitis B virus genotype D subtype ayw, UniProt P03146); experiment: HBV capsid assembly by size exclusion chromatography (SEC); format: biochemical; settings: 50 μM compound, 15 μM Cp149, 16 hours at 21° C.
T1 construct: HBV core C-terminally truncated protein (HBV Cp149); made in house

[5] = Pharmacokinetic study in rats; format: in vivo, male Sprague-Dawley rats; settings: for F (%) Rat: PO 0.3 to 2.0 mg/kg; for clearance / Vd / half-life: male, Sprague-Dawley, plasma, rat; for clearance / Vd / CL (mL/min/kg) Rat: IV 0.2 to 0.5 mg/kg; for clearance: read-out: CL (mL/min/kg) Rat; for Vd: read-out: Vd,ss (L/kg) Rat; for half-life: read-out: t1/2 (h) Rat (converted)
Experimental: (§1) Test compounds were administered to male Sprague-Dawley rats and male Beagle dogs by oral (PO) and intravenous (TV) administration. For TV dosing, test compounds were dosed at 0.2 to 0.5 mg/kg using a formulation of 10% dimethyl sulfoxide in 20% hydroxypropyl beta-cyclodextrin solution via IV bolus. For PO dosing, test compounds were dosed at 0.3 to 2.0 mg/kg using a formulation of 40% polyethylene glycol 400 in water via oral gavage. Blood samples were collected at pre-dose and various time points up to 24 hours post-dose, and centrifuged to obtain plasma samples. The plasma concentrations of test compounds were quantified by LC-MS/MS methods. The relevant pharmacokinetic parameters (Table D) were calculated via non-compartmental analysis using WinNonlin (Phoenix™, version 8.3).

[6] = Pharmacokinetic study in dogs; format: in vivo, male Beagle dogs; settings: for F (%) Dog: PO 0.3 to 2.0 mg/kg; for half-life / clearance / Vd: male, Beagle, dog, plasma; for half-life: read-out: t1/2 (h) Dog (converted); for clearance / Vd: IV 0.2 to 0.5 mg/kg; for clearance: read-out: CL (mL/min/kg) Dog; for Vd: read-out: Vd,ss (L/kg) Dog
Experimental: as §1

HBV core protein (Cp149) [7] = biological target: T1, HBV core protein (Cp149); experiment: HBV capsid assembly by electron microscopy (EM); format: biochemical; settings: 50 μM compound, 15 μM Cp149, negative stain
HBV capsid = biological target: T2, HBV capsid (Hepatitis B virus genotype D subtype ayw, UniProt P03146); experiment: Mechanistic study in stably HBV expressed HepG2.2.15 cells (capsid, encapsidated DNA/RNA, core protein blots); format: cell-based; settings: HepG2.2.15, 6 days; for HBV capsid (formation of DNA- and RNA-devoid capsid): various concentrations; for Intracellular HBV core protein level: western blot
T2 construct: expressed in transfected cells; host or cells: HepG2.2.15
Experimental: The stably HBV expressed HepG2.2.15 cells were treated with test compounds, at various concentrations in culture medium, at 37° C. for three days. After that the medium was removed and fresh medium containing the compound was added to the cells for another 3 days. After 6 days of treatment, cellular lysates from the treated cells were assessed by non-denatured agarose gel electrophoresis. HBV capsid was detected by western blot with monoclonal anti-HBV core. Encapsidated HBV DNA and RNA were detected by southern blot and northern blot. Intracellular HBV core protein was assessed by western Blot with a monoclonal mouse anti-HBV core. β-actin protein assessed by western blot was used as an internal control.

HBV genotype D = experiment: HBV-infected primary human hepatocytes (PHH); format: cell-based, Hepatitis B virus; settings: treatment scheme 1, southern blot
Experimental: Primary human hepatocytes (PHH) were infected with HBV genotype D produced from HepG2.2.15 cell line on day 1 after plating. Subsequently, the PHH were treated with various concentrations of compounds into 2 different treatment schemes. For treatment scheme 1, the compounds were added into PHH simultaneously with infection media, and incubated for additional 6 days. For treatment scheme 2, the compounds were added into PHH at day 3 after infection, and further incubated for 6 days. After treatment, the cell culture supernatants were collected for the determinations of HBV DNA by qPCR, pgRNA by RT-PCR, HBsAg and HBeAg by ELISA, and cell viability by CCK-8. The cells were harvested for detection of intracellular cccDNA by southern blot.

T2 sequence (P03146 whole entry): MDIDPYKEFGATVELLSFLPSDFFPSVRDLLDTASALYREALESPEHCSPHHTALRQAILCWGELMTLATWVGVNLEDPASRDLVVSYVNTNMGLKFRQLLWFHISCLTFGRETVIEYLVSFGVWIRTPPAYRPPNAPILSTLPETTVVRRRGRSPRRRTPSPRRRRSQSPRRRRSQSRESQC
T1 sequence (P03146 1-149): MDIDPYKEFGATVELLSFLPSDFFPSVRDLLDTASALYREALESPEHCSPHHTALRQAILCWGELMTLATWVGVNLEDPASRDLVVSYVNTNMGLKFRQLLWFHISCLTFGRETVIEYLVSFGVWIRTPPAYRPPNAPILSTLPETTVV

Row | Structure (SMILES) | activity at 1 µM (HBV [1]) [%] | pEC50 (HBV [2]) | CC50 at 6 days [3] [µM] | Size of induced capsids based on SEC retention times (HBV core protein (Cp149) [4]) | F (%) Rat [5] [%] | clearance [5] [mL/min/kg] | Vd [5] [L/kg] | half-life [5] [h] | CL (mL/min/kg) Rat [5] [mL/min/kg] | F (%) Dog [6] [%] | half-life [6] [h] | clearance [6] [mL/min/kg] | Vd [6] [L/kg] | Capsid morphology by EM (HBV core protein (Cp149) [7]) | HBV capsid (formation of DNA- and RNA-devoid capsid) (HBV capsid) | Intracellular HBV core protein level (HBV capsid) | cccDNA establishment in PHH (HBV genotype D) | Formation of capsids (SEC) (HBV core protein (Cp149) [4])
1 | Cc1ncnc(C)c1-c1ccc(C(=O)N2CC[C@H](C(=O)Nc3ccc(F)c(Cl)c3)C2)[nH]1 [Example 99, (S)—N-(3-chloro-4-fluorophenyl)-1-(5-(4,6-dimethylpyrimidin-5-yl)-1H-pyrrole-2-carbonyl) pyrrolidine-3-carboxamide] | < 45 | > 7.30 | 10 to 25 | induced capsids similar in size to NVR 3-778 | 36 | 38.4 | 2.34 | 1 | – | – | – | – | – | – | – | – | – | –
2 | Cc1ncnc(C)c1-c1ccc(C(=O)N2CC[C@H](C(=O)Nc3cc(F)c(F)c(F)c3)C2)[nH]1 [Example 85, (S)-1-(5-(4,6-dimethylpyrimidin-5-yl)-1H-pyrrole-2-carbonyl)-N-(3,4,5-trifluorophenyl) pyrrolidine-3-carboxamide] | < 45 | > 7.30 | 10 to 25 | induced capsids similar in size to NVR 3-778 | – | – | 2.88 | 3.6 | 15.2 | ~100 | 6.2 | 4.4 | 1.64 | – | – | – | – | –
3 | Cc1ncnc(C)c1-c1ccc(C(=O)N2CC[C@H](C(=O)Nc3ccc(F)c(Cl)c3)[C@@H]2C)[nH]1 [Example 104, (2S,3S)—N-(3-chloro-4-fluorophenyl)-1-(5-(4,6-dimethylpyrimidin-5-yl)-1H-pyrrole-2-carbonyl)-2-methylpyrrolidine-3-carboxamide] | < 45 | > 7.30 | 10 to 25 | induced capsids similar in size to NVR 3-778 | 66 | – | 1.93 | 1.9 | 12.3 | 53 | 14.2 | 1.5 | 1.67 | showed similar results as for NVR 3-778 | dose-dependently accelerated formation of DNA- and RNA-devoid capsid | had no effect on intracellular HBV core protein level | – | –
4 | C=C1[C@H](CO)[C@@H](O)C[C@@H]1n1cnc2c(=O)[nH]c(N)nc21 [Entecavir, entecavir, reference compound] | – | – | – | – | – | – | – | – | – | – | – | – | – | – | had no effects | had no effects | had no effect on cccDNA establishment | –
5 | C[C@H]1[C@@H](C(=O)Nc2ccc(F)c(C#N)c2)CCN1C(=O)c1ccc(C2CC2)[nH]1 [Example 74, (2S,3S)—N-(3-cyano-4-fluorophenyl)-1-(5-cyclopropyl-1H-pyrrole-2-carbonyl)-2-methylpyrrolidine-3-carboxamide] | < 45 | 6.52 to 7.30 | 10 to 25 | induced capsids similar in size to NVR 3-778 | ~100 | 3 | 0.72 | 3.4 | – | – | – | – | – | – | – | – | – | –
6 | COC(=O)C1=C(C)NC(c2ncc(F)cc2F)=N[C@H]1c1ccc(F)cc1Cl [BAY 41-4109, reference compound] | – | – | – | larger in size, as compared to NVR 3-778 | – | – | – | – | – | – | – | – | – | the capsids appeared larger and misassembled with an irregular shape | – | – | – | increased the formation of capsids
7 | C[C@H]1[C@@H](C(=O)Nc2cc(F)c(F)c(F)c2)CCN1C(=O)c1ccc(-c2ccnnc2)[nH]1 [Example 83, (2S,3S)-2-methyl-1-(5-(pyridazin-4-yl)-1H-pyrrole-2-carbonyl)-N-(3,4,5-trifluorophenyl)pyrrolidine-3-carboxamide] | < 45 | > 7.30 | > 25 | induced capsids similar in size to NVR 3-778 | 82 | 0.3 | 0.13 | 5.5 | – | – | – | – | – | – | – | – | – | –

Source: US20230391752A1, “PYRROLIDINE-3-CARBOXAMIDE DERIVATIVES AND RELATED USES” (Chulalongkorn University, priority 2020, published 2023)
